Broadly, the half-life is how long it takes for the measured level to halve. By Ki is commonly meant the equilibrium dissociation constant of an inhibitor or competing ligand from its target. In general, bioavailability refers to the share of a dose that reaches the circulation, judged against a reference dose that is usually intravenous. The low end stands for little systemic uptake, the high end for much systemic uptake. As a reminder, the clearance is the rate of elimination divided by the concentration. In general, AUC refers to concentration integrated over time. A word on the Cmax: it is the peak of the concentration-time curve.

Data set [1] in a line: Half life in phosphate buffer at pH 7.4 at 37 degreeC. Type of data set: ADME.
The target of data set [2] is T1, Dipeptidyl peptidase 4 (Homo sapiens, UniProt P27487). The experiment in a line: Inhibition of human recombinant DPP4 by tight-binding assay.
In data set [3] the target is T1, Dipeptidyl peptidase 4. Kind of data set: Inhibition of human recombinant DPP4 by tight-binding assay in presence of 10% rat plasma. Format: cell-free.
Data set [4] has as its target T1, Dipeptidyl peptidase 4. The experiment in a line: Inhibition of human recombinant DPP4.
Data set [5] in a line: Half life in Sprague-Dawley rat at 5 mg/kg, po. Type of data set: ADME, organism-based. Set-up: dose 5 mg/kg, route oral. The settings on record: in vivo.
Data set [6] can be described thus: Volume of distribution in Sprague-Dawley rat at 5 mg/kg. Set-up: dose 5 mg/kg. Conditions: in vivo, read-out: Vdss; call rule not given here. Format: ADME, organism-based.
Data set [7] is described as follows: Oral bioavailability in Sprague-Dawley rat at 5 mg/kg. Format: ADME, organism-based. Conditions: in vivo.
Data set [8] is described as follows: Plasma clearance in Sprague-Dawley rat at 5 mg/kg, iv. Format: ADME, organism-based. Also noted: dose 5 mg/kg, route intravenous.
Data set [9] relates to Rattus norvegicus. Kind of data set: AUC in Sprague-Dawley rat at 5 mg/kg, po. Also noted: dose 5 mg/kg, route oral. Type of data set: ADME, organism-based, Plasma. Conditions: in vivo.
Data set [10] is described as follows: Cmax in Sprague-Dawley rat at 5 mg/kg, po. Format: ADME, organism-based. Conditions: in vivo. Also noted: dose 5 mg/kg, route oral.
Another data set addresses Dipeptidyl peptidase 2 (Homo sapiens, UniProt Q9UHL4). Kind of data set: Inhibition of DPP7 by tight-binding assay.
Another data set concerns the target T2, Prolyl endopeptidase (Homo sapiens, UniProt P48147).
T2 sequence (P48147 whole entry): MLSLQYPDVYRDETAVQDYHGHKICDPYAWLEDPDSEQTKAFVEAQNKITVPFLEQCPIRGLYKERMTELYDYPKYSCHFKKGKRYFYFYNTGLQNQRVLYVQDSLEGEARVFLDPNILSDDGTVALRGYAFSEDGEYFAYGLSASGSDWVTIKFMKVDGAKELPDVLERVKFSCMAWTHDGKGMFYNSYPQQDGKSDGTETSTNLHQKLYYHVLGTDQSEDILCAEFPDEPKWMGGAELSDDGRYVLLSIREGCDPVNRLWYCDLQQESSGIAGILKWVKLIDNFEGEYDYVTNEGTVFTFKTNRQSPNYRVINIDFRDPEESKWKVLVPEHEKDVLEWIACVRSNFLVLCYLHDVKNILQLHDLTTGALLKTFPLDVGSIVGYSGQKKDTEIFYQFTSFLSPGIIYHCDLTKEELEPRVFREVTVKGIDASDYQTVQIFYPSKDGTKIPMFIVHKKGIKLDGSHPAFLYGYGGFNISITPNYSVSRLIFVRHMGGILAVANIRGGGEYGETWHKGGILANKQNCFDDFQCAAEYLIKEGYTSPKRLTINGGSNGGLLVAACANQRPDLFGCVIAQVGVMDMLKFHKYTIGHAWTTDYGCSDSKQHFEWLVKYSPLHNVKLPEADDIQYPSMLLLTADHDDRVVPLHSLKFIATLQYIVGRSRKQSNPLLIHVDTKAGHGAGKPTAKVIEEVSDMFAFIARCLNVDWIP
The experiment in a line: Inhibition of POP by tight-binding assay.

Data set [11] deals with Rattus norvegicus. Kind of data set: Lowering of blood glucose level in ZDF rat at 3 mg/kg, po by oral glucose tolerance test. Format: functional.
Data set [12] has as its system Rattus norvegicus. Kind of data set: Lowering of blood glucose level in ZDF rat at 0.1 mg/kg, po by oral glucose tolerance test. Type of data set: functional.
In data set [13] the test system is Rattus norvegicus. Kind of data set: Lowering of blood glucose level in ZDF rat at 1 mg/kg, po by oral glucose tolerance test. Format: functional.

T1 sequence (P27487 whole entry): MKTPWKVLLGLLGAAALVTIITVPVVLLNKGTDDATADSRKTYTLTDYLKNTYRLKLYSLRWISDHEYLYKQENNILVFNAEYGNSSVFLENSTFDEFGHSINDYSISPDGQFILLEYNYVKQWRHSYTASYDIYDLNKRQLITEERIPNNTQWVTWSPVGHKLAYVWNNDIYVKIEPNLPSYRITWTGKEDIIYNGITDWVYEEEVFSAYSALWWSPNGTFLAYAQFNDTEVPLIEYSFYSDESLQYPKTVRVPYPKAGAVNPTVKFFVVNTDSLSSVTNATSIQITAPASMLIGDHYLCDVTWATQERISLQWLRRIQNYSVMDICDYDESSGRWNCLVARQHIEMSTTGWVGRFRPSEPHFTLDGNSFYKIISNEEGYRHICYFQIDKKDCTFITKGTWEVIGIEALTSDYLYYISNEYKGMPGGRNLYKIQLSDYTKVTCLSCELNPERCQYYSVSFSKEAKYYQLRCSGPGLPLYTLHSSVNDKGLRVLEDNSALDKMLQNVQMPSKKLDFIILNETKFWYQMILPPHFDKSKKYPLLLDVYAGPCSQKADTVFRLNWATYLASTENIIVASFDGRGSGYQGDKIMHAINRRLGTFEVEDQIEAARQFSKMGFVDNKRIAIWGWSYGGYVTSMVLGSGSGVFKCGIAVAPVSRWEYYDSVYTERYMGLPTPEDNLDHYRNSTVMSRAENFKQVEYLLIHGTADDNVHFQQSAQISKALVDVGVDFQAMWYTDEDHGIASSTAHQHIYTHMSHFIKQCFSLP

Molecule `CC[C@H]1CC[C@@H](C(=O)N2CCC[C@H]2C#N)N1` showed a half-life in data set [1] of 16.4 h.
Take `N#C[C@@H]1CCCN1C(=O)[C@@H]1CC[C@H](COc2ccccc2Cc2ccccc2)N1`: the Ki result is “Not Active” at Dipeptidyl peptidase 4 [2], “Not Active” at Dipeptidyl peptidase 4 [3] and above 3 µM at Dipeptidyl peptidase 4 [4].
Consider `N#Cc1ccc(OC[C@H]2CC[C@@H](C(=O)N3CCC[C@H]3C#N)N2)c(Cl)c1`, for which the figures for the half-life in data set [5] and in [1] were 1.5 h and 16.7 h, respectively. Moreover, the Vd in [6] worked out at 0.2 L/kg. Besides, the bioavailability in data set [7] was found to be 39%. In addition, the clearance in data set [8] was 10.5 mL/min/kg. The AUC in the data set with Rattus norvegicus [9] amounted to 3140 ng·h/mL. For the same molecule, in data set [10], the Cmax came to 4540 ng/mL.
As to `CC(C)(C)c1ccccc1OC[C@H]1CC[C@@H](C(=O)N2CCC[C@H]2C#N)N1`, the half-life in data set [5] was 1.3 h; in data set [1] it was 41.2 h. Moreover, the Vd in [6] is 1.14 L/kg. In addition, in [7], the bioavailability was 3%. In addition, the clearance in data set [8] is 85 mL/min/kg. The molecule also gave an AUC in the data set with Rattus norvegicus [9] of 28 ng·h/mL. Further, in data set [10], the highest level (Cmax) was 25.2 ng/mL.
Turning to `C[C@H]1CC[C@@H](C(=O)N2CCC[C@H]2C#N)N1`, the results for the half-life in [5] and in data set [1] were 1.1 h and 6.5 h, respectively. Besides, the Vd in [6] was found to be 13.5 L/kg. In data set [7], the bioavailability was 58%. For the same molecule, the clearance in [8] is 74.8 mL/min/kg. The AUC in the data set on Rattus norvegicus [9] is 652 ng·h/mL. This molecule had a Cmax in data set [10] of 752 ng/mL.
Regarding `N#C[C@@H]1CCCN1C(=O)[C@@H]1CC[C@H](COc2cc(C(=O)O)cnc2Cl)N1`, the half-life in data set [5] is 1.2 h. In addition, the Vd in data set [6] was 0.35 L/kg. The molecule further gave a bioavailability in [7] of 2%. In data set [8], this molecule gave a clearance of 16 mL/min/kg. Moreover, the Ki was above 3 µM at Dipeptidyl peptidase 2 and 0.666 µM on Prolyl endopeptidase. The same molecule gave an AUC with Rattus norvegicus [9] of 87 ng·h/mL. In data set [10], this molecule had a Cmax of 29 ng/mL.
As to `N#C[C@@H]1CCCN1C(=O)[C@@H]1CC[C@H](COc2ccccc2Cl)N1`, the Ki on Prolyl endopeptidase worked out at 2.76 µM.
With `N#C[C@@H]1CCCN1C(=O)[C@@H]1CC[C@H](COc2ccc3ccccc3c2)N1`, the half-life in [1] was 10.8 h.
As to `N#C[C@@H]1CCCN1C(=O)[C@@H]1CC[C@H](COc2cc([N+](=O)[O-])c(Cl)cc2Cl)N1`, the half-life in data set [5] is 3.6 h. Besides, the Vd in data set [6] turned out to be 0.22 L/kg. In addition, in data set [7], the bioavailability is 13.5%. The molecule also gave a clearance in data set [8] of 3.83 mL/min/kg. Further, in the data set on Rattus norvegicus [9], the AUC was 2990 ng·h/mL. The same molecule returned a Cmax in [10] of 805 ng/mL.
In turn, `N#C[C@@H]1CCCN1C(=O)[C@@H]1CC[C@H](COc2ccc(C(=O)O)cc2Cl)N1` gave a half-life in data set [1] of 19.8 h. Also, on Prolyl endopeptidase, the affinity, expressed as Ki, was 1.74 µM.
Molecule `N#C[C@@H]1CCCN1C(=O)[C@@H]1CC[C@H](COc2ccc(Br)cc2)N1` had a half-life in data set [1] of 7.8 h.
In [1], `N#C[C@@H]1CCCN1C(=O)[C@@H]1CCCN1` gave a half-life of 1.3 h.
Turning to `CC(C)(C)c1cc(C(=O)O)ccc1OC[C@H]1CC[C@@H](C(=O)N2CCC[C@H]2C#N)N1`, the figures for the half-life in data set [5] and in data set [1] were 4.2 h and 65.4 h, respectively. For the same molecule, the Vd in [6] came to 1 L/kg. This molecule also gave a bioavailability in data set [7] of 63%. In [8], this molecule showed a clearance of 5.33 mL/min/kg. For the same molecule, in the data set with Rattus norvegicus [9], the AUC stood at 9630 ng·h/mL. The Cmax in [10] is 5580 ng/mL.
For the molecule `N#C[C@@H]1CCCN1C(=O)[C@@H]1CC[C@H](COc2cc(C(=O)O)c[n+]([O-])c2Cl)N1`, the Ki on Dipeptidyl peptidase 2 was above 3 µM; on Prolyl endopeptidase it was 1.53 µM.
In [5], `CS(=O)(=O)c1ccc(OC[C@H]2CC[C@@H](C(=O)N3CCC[C@H]3C#N)N2)c(Br)c1` had a half-life of 2.2 h. The Vd in data set [6] came to 0.3 L/kg. Further, in [7], the bioavailability is 40%. In data set [8], this molecule gave a clearance of 14 mL/min/kg. For the same molecule, in the data set on Rattus norvegicus [9], the AUC was 2920 ng·h/mL. In data set [10], this molecule gave a Cmax of 3730 ng/mL.
In turn, `CC(C)c1cc(C(=O)O)ccc1OC[C@H]1CC[C@@H](C(=O)N2CCC[C@H]2C#N)N1` had a half-life in data set [5] of 3.5 h. The Activity in the data set on Rattus norvegicus [11] turned out to be 30%; with Rattus norvegicus [12] it was 3%; in the data set with Rattus norvegicus [13], 17%. The Vd in data set [6] stood at 0.73 L/kg. This molecule also displayed a bioavailability in [7] of 34%. The clearance in [8] was 7 mL/min/kg. Besides, the Ki on Dipeptidyl peptidase 2 is above 3 µM. The molecule further showed an AUC in the data set with Rattus norvegicus [9] of 4110 ng·h/mL. Further, the Cmax in data set [10] worked out at 2470 ng/mL.
Regarding `CC(C)[C@H]1CC[C@@H](C(=O)N2CCC[C@H]2C#N)N1` (mixture of isomers), the half-life in data set [1] is above 100 h.
For `N#C[C@@H]1CCCN1C(=O)[C@@H]1CC[C@H](COc2cc(C(=O)O)ccc2Cl)N1` (mixture of isomers), the half-life is 6.9 h in [5] and above 100 h in data set [1]. Also, the Vd in data set [6] was 0.35 L/kg. In data set [7], the bioavailability turned out to be 7%. In addition, the clearance in data set [8] is 4.83 mL/min/kg. The molecule further displayed a Ki on Dipeptidyl peptidase 2 above 3 µM. In addition, the AUC in the data set with Rattus norvegicus [9] worked out at 1280 ng·h/mL. Also, the Cmax in data set [10] came out at 146 ng/mL.

(Values after ChEMBL document CHEMBL1148635, “Discovery, structure-activity relationship, and pharmacological evaluation of (5-substituted-pyrrolidinyl-2-carbonyl)-2-cyanopyrrolidines as potent dipeptidyl peptidase IV inhibitors” (J Med Chem, 2006).)
